Assay results: patent US9233979B2, “Compounds that are ERK inhibitors” (Merck Sharp & Dohme Corp., priority 2012, dated 2016)

These molecules were tested against phosphorylated active hERK2 enzyme (Homo sapiens (Human), UniProt P28482) (assay: Active Human ERK2 (hERK2) Activity Assay (IMAP-FP)). Conditions: Table 6, 0.5 nM hERK2, 30 μM ATP, 10 point titration, read-out: AERK2 IC50.
Type: biochemical
How it was run: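 IMAP fluorescence-polarization kinase assay: 0.5 nM activated hERK2 with 900 nM unlabeled plus 80 nM labeled peptide and 30 μM ATP, reacted 60 min. Quenched with IMAP beads in binding buffer with 24 mM NaCl; FP read after 60 min equilibration.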

Sequence of phosphorylated active hERK2 enzyme (P28482 whole entry): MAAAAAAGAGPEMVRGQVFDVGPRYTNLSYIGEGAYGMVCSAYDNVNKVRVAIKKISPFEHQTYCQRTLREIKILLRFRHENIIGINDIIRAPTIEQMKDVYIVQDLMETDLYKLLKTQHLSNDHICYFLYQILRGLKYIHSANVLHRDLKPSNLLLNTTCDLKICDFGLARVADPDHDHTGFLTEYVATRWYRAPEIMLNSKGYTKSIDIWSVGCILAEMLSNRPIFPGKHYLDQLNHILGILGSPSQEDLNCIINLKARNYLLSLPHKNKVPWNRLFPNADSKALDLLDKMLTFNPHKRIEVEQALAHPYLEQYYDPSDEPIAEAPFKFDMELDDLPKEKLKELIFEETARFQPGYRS

| Compound | IC50 |
| --- | --- |
| C[C@@H](O)[C@@H](NC(=O)Nc1cc2[nH]nc(N3CCC3)c2cn1)c1ccc(F)cc1 [Example 105, 1-(3-azetidin-1-yl-1H-pyrazolo[4,3-c]pyridin-6-yl)-3-[(1S,2R)-1-(4-fluorophenyl)-2-hydroxypropyl]urea] | 2.8 nM |
| Cc1nc(NC(=O)N[C@@H](c2ccc(F)cc2)[C@@H](C)O)cc2[nH]nc(N3CCOCC3)c12 [Example 106, 1-((1S,2R)-1-(4-Fluorophenyl)-2-hydroxypropyl)-3-(4-methyl-3-morpholino-1H-pyrazolo[4,3-c]pyridin-6-yl)urea] | 0.5 nM |
| Cc1nc(NC(=O)N[C@@H](c2ccccc2)C(C)(C)O)cc2[nH]nc(N3CCOCC3)c12 [Example 107, 1-[(1S)-2-hydroxy-2-methyl-1-phenylpropyl]-3-(4-methyl-3-morpholin-4-yl-1H-pyrazolo[4,3-c]-pyridin-6-yl)urea] | 0.3 nM |
| C[C@@H](O)[C@@H](NC(=O)Nc1cc2[nH]nc(N3CCOCC3)c2c(CO)n1)c1ccc(F)cc1 [Example 108, 1-[(1S,2R)-1-(4-Fluorophenyl)-2-hydroxypropyl]-3-[4-(hydroxymethyl)-3-morpholin-4-yl-1H-pyrazolo[4,3-c]pyridin-6-yl]urea] | 0.4 nM |
| CC(C)(O)[C@@H](NC(=O)Nc1cc2[nH]nc(N3CCOCC3)c2c(CO)n1)c1ccccc1 [Example 109, 1-[4-(hydroxymethyl)-3-morpholin-4-yl-1H-pyrazolo[4,3-c]-pyridin-6-yl]-3-[(1S)-2-hydroxy-2-methyl-1-phenylpropyl]urea] | 0.3 nM |
| Cc1nc(NC(=O)N[C@@H](c2ccc(F)cc2)C(C)(C)O)cc2[nH]nc(N3CCC3)c12 [Example 110, 1-(3-azetidin-1-yl-4-methyl-1H-pyrazolo[4,3-c]-pyridin-6-yl)-3-[(1S)-1-(4-fluorophenyl)-2-hydroxy-2-methylpropyl]urea] | 1.3 nM |
| C[C@@H](O)[C@@H](NC(=O)Nc1cc2[nH]nc(N3CC4CC3CO4)c2cn1)c1ccccc1 (stereo partly drawn) [Example 111, 1-[(1S,2R)-2-hydroxy-1-phenylpropyl]-3-[3-(2-oxa-5-azabicyclo[2.2.1]-hept-5-yl)-1H-pyrazolo[4,3-c]-pyridin-6-yl]urea] | 0.5 nM |
| [2H]C([2H])([2H])C([2H])([2H])Nc1n[nH]c2cc(NC(=O)N[C@H](C)c3ccccc3)ncc12 [Example 113, (R)-1-(3-((ethyl-D5)amino)-1H-pyrazolo[4,3-c]-pyridin-6-yl)-3-(1-phenylethyl)urea] | 1.6 nM |
| [2H]C([2H])([2H])C(=O)Nc1n[nH]c2cc(NC(=O)N[C@H](C)c3ccccc3)ncc12 [Example 115, (R)-N-(6-(3-(1-phenylethyl)ureido)-1H-pyrazolo[4,3-c]pyridin-3-yl)(acetamide-D3)] | 0.8 nM |
| C[C@@H](NC(=O)Nc1cc2[nH]nc(Nc3ccc(F)cc3)c2cn1)c1ccccc1 [Example 116, 1-{3-[(4-fluorophenyl)-amino]-1H-pyrazolo[4,3-c]pyridin-6-yl}-3-[(1R)-1-phenylethyl]urea] | 94.2 nM |
| O=C(Nc1cc2[nH]nc(Nc3ccccc3Cl)c2cn1)N[C@@H]1CCCOc2ccccc21 [Example 119, 1-{3-[(2-chlorophenyl)-amino]-1H-pyrazolo[4,3-c]pyridin-6-yl}-3-[(5R)-2,3,4,5-tetrahydro-1-benzoxepin-5-yl]urea] | 60.1 nM |
| COC[C@@H](NC(=O)Nc1cc2[nH]nc(Nc3ccccc3Cl)c2cn1)c1ccccc1 [Example 120, 1-{3-[(2-chlorophenyl)-amino]-1H-pyrazolo[4,3-c]pyridin-6-yl}-3-[(1S)-2-methoxy-1-phenylethyl]urea] | 27.2 nM |
| COc1ccccc1Nc1n[nH]c2cc(NC(=O)N[C@H](C)c3ccccc3)ncc12 [Example 121, 1-{3-[(2-methoxyphenyl)amino]-1H-pyrazolo[4,3-c]pyridin-6-yl}-3-[(1R)-1-phenylethyl]urea] | 24.5 nM |
| COC[C@@H](NC(=O)Nc1cc2[nH]nc(Nc3ccccc3OC)c2cn1)c1ccccc1 [Example 122, 1-{3-[(2-methoxyphenyl)-amino]-1H-pyrazolo[4,3-c]pyridin-6-yl}-3-[(1S)-2-methoxy-1-phenylethyl]urea] | 8.4 nM |
| C[C@@H](NC(=O)Nc1cc2[nH]nc(N3CCc4ncsc4C3)c2cn1)c1ccccc1 [Example 123, 1-[3-(6,7-dihydro[1,3]thiazolo-[5,4-c]pyridin-5(4H)-yl)-1H-pyrazolo[4,3-c]pyridin-6-yl]-3-[(1R)-1-phenylethyl]urea] | 0.4 nM |
| CC(C)(O)[C@@H](NC(=O)Nc1cc2[nH]nc(N3CCc4ncsc4C3)c2cn1)c1ccccc1 [Example 124, 1-[3-(6,7-dihydro[1,3]thiazolo-[5,4-c]pyridin-5(4H)-yl)-1H-pyrazolo[4,3-c]pyridin-6-yl]-3-[(1S)-2-hydroxy-2-methyl-1-phenylpropyl]urea] | 0.3 nM |
| CC(C)(O)[C@@H](NC(=O)Nc1cc2[nH]nc(N3CCc4ncsc4C3)c2cn1)c1ccc(F)cc1 [Example 125, 1-[3-(6,7-dihydro[1,3]thiazolo-[5,4-c]pyridin-5(4H)-yl)-1H-pyrazolo[4,3-c]pyridin-6-yl]-3-[(1S)-1-(4-fluorophenyl)-2-hydroxy-2-methylpropyl]urea] | 0.4 nM |
| Cn1cc2c(n1)CCN(c1n[nH]c3cc(NC(=O)N[C@@H](c4ccc(F)cc4)C(C)(C)O)ncc13)C2 [Example 126, 1-[(1S)-1-(4-fluorophenyl)-2-hydroxy-2-methylpropyl]-3-(2′-methyl-2,′4,′6,′7′-tetrahydro-1H-3,5′-bipyrazolo[4,3-c]pyridin-6-yl)urea] | 0.2 nM |
| COC[C@@H](NC(=O)Nc1cc2[nH]nc(N3CCc4ncsc4C3)c2cn1)c1ccccc1 [Example 127, 1-[3-(6,7-dihydro[1,3]-thiazolo[5,4-c]-pyridin-5(4H)-yl)-1H-pyrazolo[4,3-c]pyridin-6-yl]-3-[(1S)-2-methoxy-1-phenylethyl]urea] | 0.3 nM |

Next, values leading:

| IC50 | Compound |
| --- | --- |
| 3.4 nM | C[C@@H](NC(=O)Nc1cc2[nH]nc(NC(=O)N3CC(F)(F)C3)c2cn1)c1ccc(F)cc1 [Example 128, 3,3-difluoro-N-[6-({[(1R)-1-(4-fluorophenyl)ethyl]carbamoyl}amino)-1H-pyrazolo[4,3-c]pyridin-3-yl]-azetidine-1-carboxamide] |
| 0.4 nM | CC(C)(O)[C@@H](NC(=O)Nc1cc2[nH]nc(NC(=O)N3CC(F)(F)C3)c2cn1)c1ccc(F)cc1 [Example 129, 3,3-difluoro-N-[6-({[(1S)-1-(4-fluorophenyl)-2-hydroxy-2-methylpropyl]-carbamoyl}amino)-1H-pyrazolo[4,3-c]pyridin-3-yl]-azetidine-1-carboxamide] |
| 0.5 nM | CC(C)(O)[C@@H](NC(=O)Nc1cc2[nH]nc(NC(=O)N3CCC3)c2cn1)c1ccc(F)cc1 [Example 130, N-[6-({[(1S)-1-(4-fluorophenyl)-2-hydroxy-2-methylpropyl]-carbamoyl}amino)-1H-pyrazolo[4,3-c]pyridin-3-yl]-azetidine-1-carboxamide] |
| 1.5 nM | CC(C)(O)[C@@H](NC(=O)Nc1cc2[nH]nc(NC(=O)N3CCC(F)(F)C3)c2cn1)c1ccc(F)cc1 [Example 131, 3,3-difluoro-N-[6-({[(1S)-1-(4-fluorophenyl)-2-hydroxy-2-methylpropyl}-carbamoyl}amino)-1H-pyrazolo[4,3-c]pyridin-3-yl]-pyrrolidine-1-carboxamide] |
| 4.9 nM | CC(C)(O)[C@@H](NC(=O)Nc1cc2[nH]nc(NC(=O)N3CCC(F)(F)CC3)c2cn1)c1ccc(F)cc1 [Example 132, 4,4-difluoro-N-[6-({[(1S)-1-(4-fluorophenyl)-2-hydroxy-2-methylpropyl]-carbamoyl}amino)-1H-pyrazolo[4,3-c]pyridin-3-yl]-piperidine-1-carboxamide] |
| 2.4 nM | CC(C)(O)[C@@H](NC(=O)Nc1cc2[nH]nc(NC(=O)N3CCOCC3)c2cn1)c1ccc(F)cc1 [Example 133, N-[6-({[(1S)-1-(4-fluorophenyl)-2-hydroxy-2-methylpropyl]-carbamoyl}amino)-1H-pyrazolo[4,3-c]pyridin-3-yl]-morpholine-4-carboxamide] |
| 8.6 nM | C[C@@H](NC(=O)Nc1cc2[nH]nc(NC(=O)N3CC(C)(O)C3)c2cn1)c1ccccc1 [Example 134, 3-hydroxy-3-methyl-N-[6-({[(1R)-1-phenylethyl]-carbamoyl}-amino)-1H-pyrazolo[4,3-c]pyridin-3-yl]-azetidine-1-carboxamide] |
| 382 nM | CCNc1n[nH]c2c(C(F)(F)F)c(NC(=O)N[C@H](C)c3ccccc3)ncc12 [Example 135, (R)-1-(3-(ethylamino)-7-(trifluoromethyl)-1H-pyrazolo[4,3-c]pyridin-6-yl)-3-(1-phenylethyl)urea] |
| 12.2 nM | C[C@@H](NC(=O)Nc1cc2[nH]nc3c2c(n1)CCN3)c1ccccc1 [Example 136, (R)-1-(1-phenylethyl)-3-(1,3,4,5-tetrahydropyrazolo[3,4,5-de][1,6]naphthyridin-7-yl)urea] |
| 1.3 nM | CC(C)(O)[C@@H](NC(=O)Nc1cc2[nH]nc3c2c(n1)CCN3)c1ccccc1 [Example 137, (S)-1-(2-hydroxy-2-methyl-1-phenylpropyl)-3-(1,3,4,5-tetrahydropyrazolo[3,4,5-de][1,6]naphthyridin-7-yl)urea] |
| 5.9 nM | C[C@@H]1Cc2nc(NC(=O)N[C@H](C)c3ccccc3)cc3[nH]nc(c23)N1 [Example 138, 1-((R)-4-methyl-1,3,4,5-tetrahydropyrazolo[3,4,5-de][1,6]naphthyridin-7-yl)-3-((R)-1-phenylethyl)urea] |
| 5.5 nM | C[C@H]1Cc2nc(NC(=O)N[C@H](C)c3ccccc3)cc3[nH]nc(c23)N1 [Example 139, 1-((S)-4-methyl-1,3,4,5-tetrahydropyrazolo[3,4,5-de][1,6]naphthyridin-7-yl)-3-((R)-1-phenylethyl)urea] |
| 111 nM | CC(=O)N1CCc2nc(NC(=O)N[C@H](C)c3ccccc3)cc3[nH]nc1c23 [Example 140, (R)-1-(3-acetyl-1,3,4,5-tetrahydropyrazolo[3,4,5-de][1,6]naphthyridin-7-yl)-3-(1-phenylethyl)urea] |
